Laboratory results from US5700906A, “Immunogenic peptide antigen corresponding to plasmodium vivax circumsporozoite protein” (New York University, priority 1987, dated 1997).
Read-outs that look alike come from different tables or passages of the source. Where no end group is shown, it is not given here.

Assays:
[1] = system: binding of a monoclonal antibody to extracts of sporozoites from a New Guinea vivax malaria; assay: Competition of peptide with monoclonal antibody binding to New Guinea vivax sporozoite extracts; design: species or system P. vivax
Description: Thus, although the P. vivax CS gene was isolated from a Brazilian strain of P. vivax, the epitope deduced from the sequence of the cloned gene appears to be present in all P. vivax CS proteins so far studied. The characterization of this gene and its encoded amino acid sequence allows synthesis of large amounts of the repetitive epitope and other antigenically active regions of the P. vivax CS protein and development of a protective vaccine using peptides corresponding to such regions.

[2] = system: monoclonal antibody 2F2; assay: Inhibition of 2F2 binding to immobilized (DRADGQPAG)2 by synthetic peptides; details: competing peptide 25 micrograms/ml
Description: (§1) Monoclonal-antibody 2F2 from Example 5 was serially diluted in PBS-BSA (indicated in FIG. 5 by black triangles); or in PBS-BSA containing 25 micrograins/ml of synthetic peptide (NANP)3 (indicated by open triangles); or in PBS-BSA containing 25 micrograms/ml of the synthetic peptide of Example 4, i.e. (DRADGQPAG)2 (indicated by black circles).
(§2) An unrelated monoclonal-antibody 2AlO (anti-falciparum CS protein) was serially diluted in PBS-BSA (indicated by open squares). […] of each dilution were delivered to the bottom of microtiter plates which had previously been coated with a synthetic peptide (DRADGQPAG)2 saturated with 1% BSA. After 1 hour of incubation, the wells were washed with PBS-BSA in 50 microliters of ^125 I-labelled affinity-purified goat anti-mouse IgG (10^5 cpm; specific activity about 2×10^6 cpm/microgram). After an additional hour of incubation, the wells were washed with PBS-BSA and counted.

[3] = system: anti-P. falciparum antibody 2AlO; assay: Inhibition of binding of anti-P. falciparum antibody 2A10 to (NANP)3
Description: as §1, §2
In other similar experiments, the binding of the anti-P. falciparum antibody 2AlO to the corresponding epitope (NANP)3 was not inhibited by the synthetic peptide (DRADGQPAG)2.^1

[4] = system: binding of monoclonal antibody 2F2 to immobilized P. vivax sporozoite extract; assay: Inhibition of the binding of labelled monoclonal antibody 2F2 to immobilized P. vivax extracts; details: at 0: 16,387 ± 1,085 cpm
Description: 100,000 cpm of 2F2 antibody labelled by ^125 I having a specific activity of about 2×10^6 cpm/microgram was diluted in PBS containing 1% BSA. The buffer also contained varying amounts of the synthetic peptide. The mixture was added to microtiter wells coated with P. vivax sporozoite extract. After one hour incubation in room temperature, the wells were washed three times with PBS containing 1% BSA and counted in the gamma counter.

[5] = system: porcine elastase; assay: Elastase treatment of CS protein, reactivity with monoclonal antibodies; assay type: biochemical
Description: (c) One possible reading frame coded for an alanine-rich peptide.

[6] = system: binding of monoclonal antibody (2G3) to the CS protein of P. knowlesi; assay: 12-MER inhibition of binding of monoclonal antibody 2G3 to the CS protein of P. knowlesi
Description: Wells of microtiter plates were coated with the monoclonal antibody 2G3 washed with Tween-20, saturated with BSA as described supra. In one series of tubes, the 12-MER was serially diluted in PBS-BSA-Tween 20. In a second series of tubes, an extract of P. knowlesi sporozoites (prepared as described by Cochrane et al., supra) was serially diluted in PBS-BSA-Tween20. Aliquots of each dilution of sporozoites were mixed with equal volumes of all dilutions of 12-MER. 30 μI of these mixtures were then added to the bottom of the 2G3-coated wells. As positive and negative controls, 30 μl aliquots of sporozoite dilutions mixed with PBS-BSA-Tween 20 were added to other wells which had been precoated with 2G3 or with a non-relevant monoclonal antibody. After overnight incubation in the refrigerator, the wells were washed and 50 μl ([…]) of ^125 I-labeled 2G3 diluted in PBS-BSA-Tween 20 were added. Following an additional incubation at room temperature for 1 hour, the wells were washed and counted in a gamma counter.

[7] = system: monoclonal antibody 2G3; assay: Two-site immunoradiometric assay performed with monoclonal antibody 2G3 and synthetic peptides; assay type: binding
Description: The two synthetic peptides described in Example 7 were used in these studies. One of them was composed of the 12 amino acid sequence. H2 N-GlnAIaGlnGlyAspGlyAlaAsnAlaGlyGlnPro-COOH (12-MER) and the other was a dimer of the same sequence (24-MER). […] The assay was performed as follows:
Wells of microtiter plates (Falcon 3911) were incubated overnight at 4° C. with 50 μl of a 10 μg/ml solution in PBS of the monoclonal 2G3 anti-CS protein of P. knowlesi. The wells were washed with PBS and then incubated for 2 hours at room temperature, with PBS-Tween 20 (0.05% (w/v), and then for 3 additional hours with PBS-BSA (1% (w/v)). The synthetic peptides were diluted serially in PBS-BSA-Tween 20, and 30 μl aliquots of the dilutions were delivered to the bottom of individual wells. The plates were incubated overnight in the refrigerator, washed with PBS-BSA-Tween 20, and incubated with […] (10 ng) of ^125 I-labeled monoclonal antibody 2G3 diluted in PBS-BSA-Tween 20 (about 100,000 cpm). Controls consisted of plates coated with a non-relevant monoclonal antibody of the same isotype as 2G3.

## H-(Asp-Gly-Gln-Pro-Ala-Gly-Asp-Arg-Ala)2 [(DRADGQPAG)2]
[1]
  competition with binding of monoclonal antibody to sporozoite extracts: can compete
[2]
  inhibition of binding of 2F2 to immobilized (DRADGQPAG)2: totally inhibited
[3]
  inhibition of binding of 2AlO to (NANP)3: not inhibited
[4]; synthetic peptide 0.2 micrograms/ml
  Bound 125I-labeled 2F2: 3,146 cpm
[4]; synthetic peptide 2 micrograms/ml
  Bound 125I-labeled 2F2: 2,130 cpm
[4]; synthetic peptide 20 micrograms/ml
  Bound 125I-labeled 2F2: 1,091 cpm
[4]; synthetic peptide 200 micrograms/ml, mean of counts in four wells
  Bound 125I-labeled 2F2: 842 cpm

## OOC-Ala Ala Pro Ala
[5]
  inactivation of CS protein by elastase in presence of inhibitor: reversed

## QAQGDGANAGQP [12-MER, H2 N-GlnAIaGlnGlyAspGlyAlaAsnAlaGlyGlnPro-COOH]
[6]
  inhibition of interaction of P. knowlesi CS protein with monoclonal antibody: inhibited, in a dose-dependent fashion
[6]; 10^3 sporozoites/ml, 12-MER 0.08 mg/ml, 156 cpm at 0
  Amount of 2G3 bound in the presence of 12-MER inhibitor: 72 cpm
[6]; 10^3 sporozoites/ml, 12-MER 0.6 mg/ml, 156 cpm at 0
  Amount of 2G3 bound in the presence of 12-MER inhibitor: 0 cpm
[6]; 10^3 sporozoites/ml, 12-MER 5.0 mg/ml, 156 cpm at 0
  Amount of 2G3 bound in the presence of 12-MER inhibitor: 37 cpm
[6]; 10^4 sporozoites/ml, 12-MER 0.08 mg/ml, 1353 cpm at 0
  Amount of 2G3 bound in the presence of 12-MER inhibitor: 102 cpm
[6]; 10^4 sporozoites/ml, 12-MER 0.6 mg/ml, 1353 cpm at 0
  Amount of 2G3 bound in the presence of 12-MER inhibitor: 70 cpm
[6]; 10^4 sporozoites/ml, 12-MER 5.0 mg/ml, 1353 cpm at 0
  Amount of 2G3 bound in the presence of 12-MER inhibitor: 3 cpm
[6]; 10^5 sporozoites/ml, 12-MER 0.08 mg/ml, 4390 cpm at 0
  Amount of 2G3 bound in the presence of 12-MER inhibitor: 1221 cpm
[6]; 10^5 sporozoites/ml, 12-MER 0.6 mg/ml, 4390 cpm at 0
  Amount of 2G3 bound in the presence of 12-MER inhibitor: 781 cpm
[6]; 10^5 sporozoites/ml, 12-MER 5.0 mg/ml, 4390 cpm at 0
  Amount of 2G3 bound in the presence of 12-MER inhibitor: 361 cpm
[6]; 10^6 sporozoites/ml, 12-MER 0.08 mg/ml, 5582 cpm at 0
  Amount of 2G3 bound in the presence of 12-MER inhibitor: 3893 cpm
[6]; 10^6 sporozoites/ml, 12-MER 0.6 mg/ml, 5582 cpm at 0
  Amount of 2G3 bound in the presence of 12-MER inhibitor: 3018 cpm
[6]; 10^6 sporozoites/ml, 12-MER 5.0 mg/ml, 5582 cpm at 0
  Amount of 2G3 bound in the presence of 12-MER inhibitor: 1099 cpm
[6]; listed as monomer
  inhibition of interaction of P. knowlesi CS protein with monoclonal antibody: compete with and specifically inhibit
[7]; monoclonal antibody to P. knowlesi CS protein
  two-site radioimmunoassay reactivity: did not bind
[7]; peptide 5 ug/ml
  Amount of radiolabeled 2G3 bound: 40 cpm
[7]; peptide 50 ug/ml
  Amount of radiolabeled 2G3 bound: 103 cpm
[7]; peptide 500 ug/ml
  Amount of radiolabeled 2G3 bound: 157 cpm
[7]; peptide .5 ug/ml
  Amount of radiolabeled 2G3 bound: 0 cpm
